What was measured:
[1] = test system: PGCLC induced from BVSCDT ESC(XY); experiment: Screening for factors inducing female germ cell fate: DT and BV expression by FACS at c7; type: cell-based, mouse; conditions: added from c3, read at c7; RA 100 nM, cytokines 500 ng/ml; BMPs in combination with RA
Procedure: (§1) The PGC/PGCLC expansion medium was constituted of 10% KSR, 2.5% FBS, 0.1 mM NEAA, 1 mM sodium pyruvate, 2 mM L-glutamine, 0.1 mM 2-mercaptoethanol, 100 U/ml penicillin, 0.1 mg/ml […] streptomycin, […] forskolin, and 10 μM rolipram. The entire medium was changed every 2 days from c3. Cytokines/compounds for induction of female fate were provided from c3 to the end of culture. RA and BMP concentrations used were 100 nM and 300 ng/ml, respectively, unless otherwise specified. Brightfield and fluorescence images were captured using an IX73 inverted microscope (Olympus).
(§2) The preparation of d4/c0 PGCLC for FACS is described in “ESC culture/induction and PGCLC induction/culture”. To isolate germ cells in vivo, fetal gonads of BVSC, VR or SG mice were cut and processed for FACS according to the procedure described for d4/c0 PGCLC. Culture PGCLC was also prepared by the same method except that, after dissociation, the cells were washed with 0.1% BSA-DMEM containing 100 μg/ml DNase (Sigma-Aldrich), lysed DNA from dead cells was digested to prevent the formation of cell/debris clumps. Fluorescent activity of BV/SG, SC, or DT/VR was detected with FITC, Horizon V500 or PE-Texas Red channels, respectively. FACS data was analyzed using FlowJo or FACS Diva software package.
In the signal inhibitory experiment, LDN193189 (#04-0074; Stemgent) and BMS493 (B6688; Sigma-Aldrich) dissolved in DMSO were used as ALK2/3 inhibitor and RAR inhibitor, respectively.

[2] = test system: PGCLCs induced from BVSCVR ESC (XX); experiment: BVSC and VR expression by FACS in cultured PGCLC; type: cell-based, mouse; conditions: added at c3, read at c9; varying concentrations
Procedure: as §1, §2

cultured PGCLC [3] = experiment: Immunofluorescence analysis of STRA8, SCP3, DDX4 in cultured PGCLC; type: cell-based, mouse
Procedure: as §1
(§3) Immunofluorescence (IF) analysis was performed as described previously (Hayashi et al, 2012). The following primary antibodies were used: chicken anti-GFP (ab13970; Abeam), rabbit anti-DDX4 (ab13840; Abeam), mouse anti-DDX4 (ab27591; Abeam), rabbit anti-DAZL (ab34129; Abeam), goat anti-DAZL (sc-27333; Santa Cruz), rabbit anti-STRA8 (ab49602; Abeam), mouse anti-SYCP3 (ab97672; Abeam) and rabbit anti-TEX14 (ab41733; Abeam)IgG. The following secondary antibodies were used: Alexa Fluor 488-goat anti-mouse or chicken IgG; Alexa Fluor 568-goat anti-rabbit IgG and Alexa Fluor 633-goat anti-mouse, anti-chicken IgG; Alexa Fluor 488-donkey anti-mouse IgG; Alexa Fluor 568-donkey anti-rabbit IgG and Alexa Fluor 633-donkey anti-goat IgG. IF images were acquired using a confocal microscope [FV1000 (Olympus) or LSM780 (Zeiss)].

BV/SC(+) cells = experiment: Cell cycle analysis by EdU and 7AAD uptake in PGCLC culture; type: cell-based, mouse; conditions: RA alone; c9
Procedure: Cell cycle analysis was performed using the Click-iT EdU Flow Cytometry Assay Kit (C10424; Thermo Fischer Scientific) according to the manufacturer's instructions. Cultured PGCLC was treated with 10 μg/ml EdU for 30 min to 2 hr and analyzed by FACS.

PGC at E11.5 = experiment: Ex vivo culture of E11.5 PGC, SCP3/DDX4/SG expression at c4; type: cell-based, mouse; conditions: cultured 4 days; RA alone
Procedure: as §3

BV (+) d4 PGCLCs = experiment: Compound library screening for PGCLC proliferation (BV fluorescence by cell analyzer); type: cell-based, mouse; conditions: three CsA entries in the screening data, two exceeded; 10 μM and 1 μM
Procedure: d4 PGCLC was seeded by FACS on m220-5 feeders in 96-well plates and BV fluorescence was monitored by cell analyzer (Cellavista; SynenTec). Fluorescence photograph for BV was taken by Cellavista cell analyzer with the following settings: 10× objectives; exposure time: 140 μsec; gain: 4×; binning: 4×4; excitation: 500/24 nm; emission: 542/27 nm. BV fluorescence was detected using the following algorithm/attribute parameters: sensitivity: 10; region merging: 200; min. granule intensity: 50; well edge distance: 200; contrast: 1; size: 3,000; intensity: 255; roughness: 500; granularity: 100; granule intensity: 255; granule count: 10,000; longishness: 100; compactness: 1. The value of “cell nucleus” was used for the detection of BV fluorescence.
The compound library was screened at concentrations of 10 μM and 1 μM. […] 200 BV (+) d4 PGCLCs induced from BDF1-2 ESC were seeded in the wells of a 96-well plate, and BV fluorescence was measured on the Cellavista cell analyzer on day 1 of culture (c1), c3, c5 and c7. The value of “cell nucleus” was used for the detection of BV fluorescence. […] For each compound, the fold difference in BV fluorescence between c1 and c7 was calculated for each compound and compounds with a fold difference value exceeding 3SD of the mean of the negative control were identified as those that potentiate PGCLC proliferation.

d4 PGCLC = experiment: Expansion culture of d4 PGCLC on m220-5 feeder (cell number fold increase); type: cell-based, mouse
Procedure: (§4) Since the m220-5 feeder treated with MMC was vulnerable to forskolin and rolipram, m220-5 cells were subcultured 3 times with both forskolin and rolipram each at 10 μM and adapted to these compounds before MMC treatment (1-2 μg/ml for 2 hr). d4 PGCLC or E9.5 PGC(BDF1×Stella-EGFP) was selected by FACS, and the cells were seeded on m220-5 cells in GMEM medium containing 10% KSR, 0.1 mM NEAA, 1 mM sodium pyruvate, 0.1 mM 2-mercaptoethanol, 100 U/ml penicillin, 0.1 mg/ml streptomycin, 2 mM L-glutamine, 2.5% FCS, 100 ng/ml SCF, 10 μM forskolin, and 10 μM rolipram. Half of the culture medium was changed every 2 days.
(§5) Expansion culture of PGC/PGCLC to investigate the combined effect of cyclosporin A (CsA) was performed as in Example [I], except that 5 μM CsA was added to the medium in addition to 10 μM forskolin and 10 μM loripram (FR10).

E9.5 PGC = experiment: Expansion culture of E9.5 PGC on m220-5 feeder; type: cell-based, mouse; conditions: CsA in addition to forskolin and PDE4 inhibitor (FR10)
Procedure: as §4, §5

cultured PGCLC [4] = experiment: Cell cycle analysis of cultured PGCLC (BrdU/EdU, FACS); type: cell-based, mouse; conditions: FR10+CsA compared to FR10 alone
Procedure: The cell cycle status of ESC, EpiLC, d4, d4c3, d4c5 and d4c7 PGCLC(BDF1-2) at E13.5, E14.5 and E15.5 and male germ cells was examined in the same manner as in a previous report (Kagiwada et al, 2013). To label the cultured cells, the cells were incubated with BrdU (10 μM) for 30 min. To label gem cells, female mice (ICR) were mated with Stella-EGFP males and pregnant females were intraperitoneally injected with 1 mg BrdU and embryos were harvested 30 min later. Cultured cells or male gonads were dispersed in single cells by TrypLE treatment. To detect BrdU uptake, the APC-BrdU Flow Kit (BD Biosciences) was used according to the manufacturer's instructions. The stained samples were analyzed using BD FACSAriaIII (BD) with FACS Diva (BD) software, and PGCLC or male gem cells were respectively identified by BV or Stella-EGFP fluorescence. Three biological replicates were analyzed for each sample.
The analysis was performed as in Example [I] except that EdU (10 μM) was used in place of BrdU, and Click-iT™ Plus EdU Alexa Fluor™ 647 Flow Cytometry Assay Kit (Thermo Fisher Scientific) was used for detection of EdU uptake.

PGCLC = experiment: CsA or FK506 alone at various concentrations on PGCLC proliferation (fold difference d7/d1); type: cell-based, mouse; conditions: 10, 5, 1, 0 μM tested, without FR10
d4c7 PGCLC = experiment: Detection of apoptotic cells (Annexin V); type: cell-based, mouse; conditions: FR10+CsA compared to FR10 alone
Procedure: d4c7 PGCLC cultured in FR10 or FR10+CsA was dispersed in single cells by TrypLE treatment, and stained using Annexin V Apoptosis Detection Kit APC (eBioscience) according to the manufacturer's instructions. The stained samples were analyzed using BD FACSAriaIII (BD) with FACSDiva (BD) software, and PGCLC was identified by BV fluorescence. Three biological replicates were analyzed for each sample.

[5] = test system: testes of neonatal W/Wv mice; experiment: Transplantation of amplified PGCLC into testes of neonatal W/Wv mice (spermatogenesis, offspring); type: in vivo, mouse; conditions: d4c7 PGCLC; neonatal W/Wv recipients
Procedure: After purification of PGCLC by FACS, 1×10^4-1×10^5 cells per testis were injected into the testes of randomly selected neonatal (7 days old) or adult W/W^v mouse, as previously reported (Chuma et al, 2005). Where necessary, anti-mouse CD4 antibody ([…] per dose, clone GK1.5; Biolegend) was injected intraperitoneally on day 0, 2 or 4 for immunosuppression (Kanatsu-Shinohara et al, 2003). To assess pregnancy, recipients at 10 weeks post-transplant were mated with BDF1 females. The genotype of BVSC transgene progeny was determined as previously reported (Ohinata et al, 2008). For HE staining, testis or epididymis was fixed with Bouin's solution and embedded in paraffin, and sections were produced.
Spermatozoons were collected from the cauda epididymis and pre-incubated in HTF medium (Kyudo Co., Ltd.) for 1 hr at 37° C. Eggs were collected from BDF1 females that were superovulated by injecting PMSG and hCG and fertilized with sperm in HTF medium. The obtained 2-cell embryos were transferred to the fallopian tube of pseudopregnant ICR females 0.5 days after pregnancy (dpc). Pups were delivered by cesarean section at 18.5 dpc.
Spermatozoons were collected from the mouse testis that received transplantation of PGCLC by the method described in Example [I], and directly injected with a micromanipulator into the ovum collected from BDF1 females that were superovulated by injecting PMSG and hCG. […]

Row | Compound | DT and BV expression in BV (+) cells [1] | BVSC and VR expression [2] | BV/SC(+) cells expressing STRA8 (cultured PGCLC [3]; RA alone) | induction of VR/DDX4 and SCP3 (+) cells (meiotic entry) (cultured PGCLC [3]; cultured PGCLC, c9, BMP4, 5, 7 combined with RA, BMS493 with BMP2, LDN193189 with RA and BMP2) | entry into meiosis by cell cycle profile (BV/SC(+) cells) | induction of SCP3 (PGC at E11.5) | fold difference (d7/d1) of BV signal in compound library screening (BV (+) d4 PGCLCs) | proliferation of PGCLC on average with CsA added (d4 PGCLC; 5 μM CsA in addition to forskolin and PDE4 inhibitor (FR10)) | colony morphology and BVSC expression of expanded cells (d4 PGCLC; expansion culture on m220 feeder) | proliferation of E9.5 PGC with CsA added (E9.5 PGC) | percentage of S-stage cells (cultured PGCLC [4]) | most optimal concentration for growing PGCLCs (PGCLC) | percentage of apoptotic cells (d4c7 PGCLC) | function of amplified PGCLC after transplantation into testes [5]
1 | CC1=C(/C=C/C(C)=C/C=C/C(C)=C/C(=O)O)C(C)(C)CCC1 [RA, all trans retinoic acid] | increased DT levels | did not activate VR | ~77.7% | did not activate VR/DDX4 or SCP3 | did not go into meiosis even in c9 | Neither control culture nor culture with RA alone induced SCP3 | – | – | – | – | – | – | – | –
2 | cyclo{-[(2S,3R,4R,6E)-3-hydroxy-4-methyl-2-methylaminooct-6-enoyl]-L-2-aminobutanoyl-N-methylglycyl-N-methyl-L-leucyl-L-valyl-N-methyl-L-leucyl-L-alanyl-D-alanyl-N-methyl-L-leucyl-N-methyl-L-leucyl-N-methyl-L-valyl-} [CsA] | – | – | – | – | – | – | > 3 SD | about 50 fold | formed flat colonies and strongly expressed BVSCs | about 16 fold | increased percentage of S-stage | 5 µM | decreased percentage of apoptotic cells | capable of differentiating into functional spermatozoa

— patent publication US20200362303A1, “MAINTENANCE-AND-AMPLIFICATION METHOD AND DIFFERENTIATION INDUCTION METHOD FOR PRIMORDIAL GERM CELLS/PRIMORDIAL GERM CELL-LIKE CELLS” (KYOTO UNIVERSITY, priority 2017, published 2020)
